Reference: patent publication EP0033789A1, “2-alpha-Methyl-dopaminimino-6,7-dihydroxy-1,2,3,4-tetrahydronaphthalene, its salts, and a process for preparation thereof” (priority 1980, dated 1981)

Each compound was assayed on anesthetized, open-chested dogs (assay: Inotropic, chronotropic and pressor/depressor activities in anesthetized, open-chested dogs (Walton-Brodie strain gauge, ventricular and aortic catheters)). Conditions: Canis lupus familiaris, read-out: Inotropic Potency CF50.
Format: in vivo
Method: The following tests were conducted: • In anesthetized, open-chested dogs, instrumented with a Walton-Brodie strain gauge to measure cardiac contractile force, a ventricular catheter to measure left ventricular dP/dt and an aortic catheter to measure diastolic blood pressure and heart rate. Contractile force and L.V. dP/dt are indices of cardiac contractility and provide information on the inotropic state of the heart. The experimental standard drugs are compared by normalizing pressor/depressor and heart rate responses to a given inotropic effect. Cardioselective inotropic agents will produce minimal diastolic pressure changes for any given inotropic effect. Likewise, inotropic selective agents will produce minimal heart rate changes for any given inotropic effect.

Row | Compound | ED50 [µg/kg]
1 | NC1CCc2cc(O)c(O)cc2C1 (stereo not shown) [C, 2-amino-6,7-dihydroxy-1,2,3,4-tetrahydro-naphthalene] | 44.9 ± 3.3

Same assay, conditions: Canis lupus familiaris, read-out: Inotropic Potency CF100

Row | Compound | ED (100% increase) [µg/kg]
2 | NC1CCc2cc(O)c(O)cc2C1 (stereo not shown) [C, 2-amino-6,7-dihydroxy-1,2,3,4-tetrahydro-naphthalene] | 119 ± 34.7

Same assay, conditions: Canis lupus familiaris, read-out: Inotropic Potency dP/dt75

Row | Compound | ED (75% increase) [µg/kg]
3 | NC1CCc2cc(O)c(O)cc2C1 (stereo not shown) [C, 2-amino-6,7-dihydroxy-1,2,3,4-tetrahydro-naphthalene] | 40.4 ± 3.1

Same assay, conditions: Canis lupus familiaris, read-out: Inotropic Potency dP/dt150

Row | Compound | ED (150% increase) [µg/kg]
4 | NC1CCc2cc(O)c(O)cc2C1 (stereo not shown) [C, 2-amino-6,7-dihydroxy-1,2,3,4-tetrahydro-naphthalene] | 75.6 ± 5.8

Same assay, conditions: Canis lupus familiaris; dose required to produce 50% increase in cardiac contractile force (CF); means ± SEM; read-out: Inotropic Potency CF50

Row | Compound | ED50 [µg/kg]
5 | CC(CCc1ccc(O)cc1)NCCc1ccc(O)c(O)c1 (racemic) [D, (±)-4-(2(3-p-hydroxyphenyl-1-methylpropyl)amino) ethyl-1,2-benzenediol] | 1.4 ± 0.2
6 | COc1cc2c(cc1OC)CC(NC(C)CCc1ccc(O)cc1)CC2 (stereo not shown) [A, 2-(3-p-hydroxyphenyl-1-methylpropyl) amino-6,7-dimethoxy-1,2,3,4-tetrahydronaphthalene] | 158
7 | CC(CCc1ccc(O)cc1)NC1CCc2cc(O)c(O)cc2C1 (stereo not shown) [B, 2-(3-p-hydroxyphenyl-1-methylpropyl) amino-6,7-dihydroxy-1,2,3,4-tetrahydronaphthalene] | 56.3
8 | NCCc1ccc(O)c(O)c1 [E, 4-(2-aminoethyl)-1,2-benzenediol] | 9.1 ± 1

Same assay, conditions: Canis lupus familiaris; dose required to produce 75% increase in left ventricular dP/dt; means ± SEM; read-out: Inotropic Potency dP/dt75

Row | Compound | ED (75% increase) [µg/kg]
9 | COc1cc2c(cc1OC)CC(NC(C)CCc1ccc(O)cc1)CC2 (stereo not shown) [A, 2-(3-p-hydroxyphenyl-1-methylpropyl) amino-6,7-dimethoxy-1,2,3,4-tetrahydronaphthalene] | 262
10 | CC(CCc1ccc(O)cc1)NC1CCc2cc(O)c(O)cc2C1 (stereo not shown) [B, 2-(3-p-hydroxyphenyl-1-methylpropyl) amino-6,7-dihydroxy-1,2,3,4-tetrahydronaphthalene] | 125
11 | NCCc1ccc(O)c(O)c1 [E, 4-(2-aminoethyl)-1,2-benzenediol] | 9.9 ± 0.7
12 | CC(C)NCC(O)c1ccc(O)c(O)c1 (stereo not shown) [F, 4-(1-hydroxy-2-((1-methylethyl)-amino)ethyl)-1,2-benzenediol] | 0.04 ± 0.01

Same assay, conditions: Canis lupus familiaris; dose required to produce 100% increase in cardiac contractile force (CF); means ± SEM; read-out: Inotropic Potency CF100

Row | Compound | ED (100% increase) [µg/kg]
13 | CC(CCc1ccc(O)cc1)NCCc1ccc(O)c(O)c1 (racemic) [D, (±)-4-(2(3-p-hydroxyphenyl-1-methylpropyl)amino) ethyl-1,2-benzenediol] | 4.4
14 | COc1cc2c(cc1OC)CC(NC(C)CCc1ccc(O)cc1)CC2 (stereo not shown) [A, 2-(3-p-hydroxyphenyl-1-methylpropyl) amino-6,7-dimethoxy-1,2,3,4-tetrahydronaphthalene] | 333
15 | CC(CCc1ccc(O)cc1)NC1CCc2cc(O)c(O)cc2C1 (stereo not shown) [B, 2-(3-p-hydroxyphenyl-1-methylpropyl) amino-6,7-dihydroxy-1,2,3,4-tetrahydronaphthalene] | 198
16 | NCCc1ccc(O)c(O)c1 [E, 4-(2-aminoethyl)-1,2-benzenediol] | 19.6 ± 2.7
17 | CC(C)NCC(O)c1ccc(O)c(O)c1 (stereo not shown) [F, 4-(1-hydroxy-2-((1-methylethyl)-amino)ethyl)-1,2-benzenediol] | 0.09 ± 0.02

Same assay, conditions: Canis lupus familiaris; dose required to produce 150% increase in left ventricular dP/dt; means ± SEM; read-out: Inotropic Potency dP/dt150

Row | Compound | ED (150% increase) [µg/kg]
18 | CC(CCc1ccc(O)cc1)NCCc1ccc(O)c(O)c1 (racemic) [D, (±)-4-(2(3-p-hydroxyphenyl-1-methylpropyl)amino) ethyl-1,2-benzenediol] | 4 ± 0.6
19 | COc1cc2c(cc1OC)CC(NC(C)CCc1ccc(O)cc1)CC2 (stereo not shown) [A, 2-(3-p-hydroxyphenyl-1-methylpropyl) amino-6,7-dimethoxy-1,2,3,4-tetrahydronaphthalene] | 756
20 | CC(CCc1ccc(O)cc1)NC1CCc2cc(O)c(O)cc2C1 (stereo not shown) [B, 2-(3-p-hydroxyphenyl-1-methylpropyl) amino-6,7-dihydroxy-1,2,3,4-tetrahydronaphthalene] | 359
21 | NCCc1ccc(O)c(O)c1 [E, 4-(2-aminoethyl)-1,2-benzenediol] | 23.7 ± 3
22 | CC(C)NCC(O)c1ccc(O)c(O)c1 (stereo not shown) [F, 4-(1-hydroxy-2-((1-methylethyl)-amino)ethyl)-1,2-benzenediol] | 0.14 ± 0.05

Same assay, conditions: at the dose giving 50% increase in cardiac contractile force; means ± SEM

Row | Compound | Cardioselectivity: Change in diastolic blood pressure obtained at CF50 [mm Hg] | Inotropic Selectivity: Change in heart rate obtained at CF50 [BPM]
23 | CC(CCc1ccc(O)cc1)NCCc1ccc(O)c(O)c1 (racemic) [D, (±)-4-(2(3-p-hydroxyphenyl-1-methylpropyl)amino) ethyl-1,2-benzenediol] | 3 ± 1 | 3 ± 1
24 | COc1cc2c(cc1OC)CC(NC(C)CCc1ccc(O)cc1)CC2 (stereo not shown) [A, 2-(3-p-hydroxyphenyl-1-methylpropyl) amino-6,7-dimethoxy-1,2,3,4-tetrahydronaphthalene] | -17 | 5
25 | CC(CCc1ccc(O)cc1)NC1CCc2cc(O)c(O)cc2C1 (stereo not shown) [B, 2-(3-p-hydroxyphenyl-1-methylpropyl) amino-6,7-dihydroxy-1,2,3,4-tetrahydronaphthalene] | -13 | -17
26 | NC1CCc2cc(O)c(O)cc2C1 (stereo not shown) [C, 2-amino-6,7-dihydroxy-1,2,3,4-tetrahydro-naphthalene] | 31 ± 9 | -12 ± 9
27 | NCCc1ccc(O)c(O)c1 [E, 4-(2-aminoethyl)-1,2-benzenediol] | -20 ± 6 | 5 ± 5
28 | CC(C)NCC(O)c1ccc(O)c(O)c1 (stereo not shown) [F, 4-(1-hydroxy-2-((1-methylethyl)-amino)ethyl)-1,2-benzenediol] | -6 ± 2 | 14 ± 2

Same assay, conditions: at the dose giving 75% increase in left ventricular dP/dt; means ± SEM

Row | Compound | Cardioselectivity: Change in diastolic blood pressure obtained at dP/dt75 | Inotropic Selectivity: Change in heart rate obtained at dP/dt75 [BPM]
29 | CC(CCc1ccc(O)cc1)NCCc1ccc(O)c(O)c1 (racemic) [D, (±)-4-(2(3-p-hydroxyphenyl-1-methylpropyl)amino) ethyl-1,2-benzenediol] | 4 ± 1 mm Hg | 3 ± 1
30 | COc1cc2c(cc1OC)CC(NC(C)CCc1ccc(O)cc1)CC2 (stereo not shown) [A, 2-(3-p-hydroxyphenyl-1-methylpropyl) amino-6,7-dimethoxy-1,2,3,4-tetrahydronaphthalene] | -23 mm Hg | 10
31 | CC(CCc1ccc(O)cc1)NC1CCc2cc(O)c(O)cc2C1 (stereo not shown) [B, 2-(3-p-hydroxyphenyl-1-methylpropyl) amino-6,7-dihydroxy-1,2,3,4-tetrahydronaphthalene] | 37 mm Hg | 0
32 | NC1CCc2cc(O)c(O)cc2C1 (stereo not shown) [C, 2-amino-6,7-dihydroxy-1,2,3,4-tetrahydro-naphthalene] | 30 + 5 mm Hg | -12 ± 10
33 | NCCc1ccc(O)c(O)c1 [E, 4-(2-aminoethyl)-1,2-benzenediol] | -20 ± 7 mm Hg | 5 ± 6
34 | CC(C)NCC(O)c1ccc(O)c(O)c1 (stereo not shown) [F, 4-(1-hydroxy-2-((1-methylethyl)-amino)ethyl)-1,2-benzenediol] | -6 ± 2 mm Hg | 14 ± 1

Same assay, conditions: at the dose giving 100% increase in cardiac contractile force; means ± SEM

Row | Compound | Cardioselectivity: Change in diastolic blood pressure obtained at CF100 [mm Hg] | Inotropic Selectivity: Change in heart rate obtained at CF100 [BPM]
35 | CC(CCc1ccc(O)cc1)NCCc1ccc(O)c(O)c1 (racemic) [D, (±)-4-(2(3-p-hydroxyphenyl-1-methylpropyl)amino) ethyl-1,2-benzenediol] | 4 ± 3 | 17 ± 5
36 | COc1cc2c(cc1OC)CC(NC(C)CCc1ccc(O)cc1)CC2 (stereo not shown) [A, 2-(3-p-hydroxyphenyl-1-methylpropyl) amino-6,7-dimethoxy-1,2,3,4-tetrahydronaphthalene] | -27 | 14
37 | CC(CCc1ccc(O)cc1)NC1CCc2cc(O)c(O)cc2C1 (stereo not shown) [B, 2-(3-p-hydroxyphenyl-1-methylpropyl) amino-6,7-dihydroxy-1,2,3,4-tetrahydronaphthalene] | 57 | 15
38 | NC1CCc2cc(O)c(O)cc2C1 (stereo not shown) [C, 2-amino-6,7-dihydroxy-1,2,3,4-tetrahydro-naphthalene] | 61 ± 10 | 21 ± 17
39 | NCCc1ccc(O)c(O)c1 [E, 4-(2-aminoethyl)-1,2-benzenediol] | -12 ± 9 | 12 ± 5
40 | CC(C)NCC(O)c1ccc(O)c(O)c1 (stereo not shown) [F, 4-(1-hydroxy-2-((1-methylethyl)-amino)ethyl)-1,2-benzenediol] | -15 ± 2 | 34 ± 3

Same assay, conditions: at the dose giving 150% increase in left ventricular dP/dt; means ± SEM

Row | Compound | Cardioselectivity: Change in diastolic blood pressure obtained at dP/dt150 [mm Hg] | Inotropic Selectivity: Change in heart rate obtained at dP/dt150 [BPM]
41 | CC(CCc1ccc(O)cc1)NCCc1ccc(O)c(O)c1 (racemic) [D, (±)-4-(2(3-p-hydroxyphenyl-1-methylpropyl)amino) ethyl-1,2-benzenediol] | 3 ± 3 | 13 ± 2
42 | COc1cc2c(cc1OC)CC(NC(C)CCc1ccc(O)cc1)CC2 (stereo not shown) [A, 2-(3-p-hydroxyphenyl-1-methylpropyl) amino-6,7-dimethoxy-1,2,3,4-tetrahydronaphthalene] | -40 | 27
43 | CC(CCc1ccc(O)cc1)NC1CCc2cc(O)c(O)cc2C1 (stereo not shown) [B, 2-(3-p-hydroxyphenyl-1-methylpropyl) amino-6,7-dihydroxy-1,2,3,4-tetrahydronaphthalene] | 75 | 32
44 | NC1CCc2cc(O)c(O)cc2C1 (stereo not shown) [C, 2-amino-6,7-dihydroxy-1,2,3,4-tetrahydro-naphthalene] | 51 ± 5 | 5 ± 8
45 | NCCc1ccc(O)c(O)c1 [E, 4-(2-aminoethyl)-1,2-benzenediol] | -10 ± 8 | 13 ± 6
46 | CC(C)NCC(O)c1ccc(O)c(O)c1 (stereo not shown) [F, 4-(1-hydroxy-2-((1-methylethyl)-amino)ethyl)-1,2-benzenediol] | -16 ± 2 | 41 ± 5
